Among the data in ChEMBL document CHEMBL6087484, “Discovery of Novel Small-Molecule Inhibitors Disrupting the MTDH-SND1 Protein-Protein Interaction” (J Med Chem, 2025) are IC50 values, retold here.

Broadly, the IC50 is the concentration at which inhibition is half-maximal.

In the assay the test system is MCF7. The assay is described as follows: Anti-proliferative activity against human MCF7 cells assessed as cell viability measured after 72 hrs by CCK8 assay. To be noted: MCF7, 72 h. A general note: Tetrazolium assays rely on reduction of a dye to a coloured formazan, in cell work by metabolically active cells.
Regarding `O=S(=O)(Nc1cccc2cccnc12)c1cccc2cccnc12`, the IC50 was 901 nM.

`COc1cc(NS(=O)(=O)c2cccc3cccnc23)c2ncccc2c1`: the IC50 is 2350 nM.

On to `O=S(=O)(Nc1cc(Cl)cc2cccnc12)c1cccc2cccnc12`, for which the IC50 stood at 1170 nM.

On to `O=S(=O)(Nc1cccc2cc(Br)cnc12)c1cccc2cccnc12`, for which the IC50 worked out at 4380 nM.

For `Cc1ccc2cccc(NS(=O)(=O)c3cccc4cccnc34)c2n1`, the IC50 is above 10000 nM.

Consider `COc1ccc(Cl)cc1S(=O)(=O)Nc1cccn2ncnc12`, for which the IC50 is above 10000 nM.

`CC(C)N1CCN(c2ccc(NS(=O)(=O)c3cccc4cccnc34)c3ncccc23)CC1`: the IC50 was found to be 6420 nM.

For the compound `O=S(=O)(Nc1cccc2cc(Nc3ccccc3)cnc12)c1cccc2cccnc12`, the IC50 was above 10000 nM.

On to `O=S(=O)(Nc1ccc(Cl)c2cccnc12)c1cccc2cccnc12`, for which the IC50 amounted to 2890 nM.

For the compound `O=S(=O)(Nc1ccc(Br)c2cccnc12)c1cccc2cccnc12`, the IC50 worked out at 2190 nM.

For the compound `O=S(=O)(Nc1cc(Br)cc2cccnc12)c1cccc2cccnc12`, the IC50 came to 2110 nM.
